Tests used:
weeds = assay: Post-emergence test, Example B1: weeds overall, in words; type: in vivo, Apera, Alopecurus, Avena; conditions: herbicide 25 g/ha, where combined cloquintocet-mexyl 6.25 g/ha, MERGE 1%
Description: (§1) A standard soil is used as cultivation substrate.
(§2) The rate of application of herbicide is in each case 25 g/ha; the rate of application of cloquintocet-mexyl is 6.25 g/ha. As oil additive, MERGE® is used in a concentration of 1% by weight of the spray mixture.

Alopecurus = assay: Post-emergence test, Example B1: Alopecurus; type: in vivo; conditions: greenhouse, herbicide 25 g/ha, where combined cloquintocet-mexyl 6.25 g/ha, MERGE 1% by weight of spray mixture, evaluated after 2 to 4 weeks, 100%=complete destruction
Description: as §1, §2

Apera = assay: Post-emergence test, Example B1: Apera; type: in vivo; conditions: greenhouse, herbicide 25 g/ha, where combined cloquintocet-mexyl 6.25 g/ha, MERGE 1% by weight of spray mixture, evaluated after 2 to 4 weeks, 100%=complete destruction
Description: as §1, §2

Avena = assay: Post-emergence test, Example B1: Avena; type: in vivo; conditions: greenhouse, herbicide 25 g/ha, where combined cloquintocet-mexyl 6.25 g/ha, MERGE 1% by weight of spray mixture, evaluated after 2 to 4 weeks, 100%=complete destruction
Description: as §1, §2

Row | SMILES | Herbicidal action on the weeds (in words) (weeds) | Herbicidal action on Alopecurus (Alopecurus) [%] | Herbicidal action on Apera (Apera) [%] | Herbicidal action on Avena (Avena) [%]
1 | CCc1cc(C)cc(CC)c1-c1c(OC(=O)C(C)(C)C)n2n(c1=O)CCOCC2 [compound no. 1.008] | only slight to moderate herbicidal action | 20 | 25 | 20
2 | CCc1cc(C)cc(CC)c1C1C(=O)N2CCOCCN2C1=O [compound no. 1.007] | only slight to moderate herbicidal action | 10 | 60 | 10

From US6555499B1, “Herbicide agent” (Syngenta Crop Protection, Inc., priority 1999, dated 2003)
